The values below come from patent publication US12377104B1, “Methods for treating a fatty liver disease” (Madrigal Pharmaceuticals, Inc., priority 2024, dated 2025).

The subject of this test is adults with biopsy-confirmed NASH. Briefly: MAESTRO-NASH: biomarkers PRO-C3 and P3NP/ELF. It is filed as in vivo, human. As to the method: Pearson's correlation was used to examine the association between 2 PRO-C3 enzyme-linked immunosorbent assay (ELISA) assay methods (ELISA GEN1 and ELISA GEN2, NORDIC BIOSCIENCE) using PRO-C3 baseline data (N=919). The remainder of the analyses used the ELISA GEN2 assay. Mean SD or SE and median [Q1, Q3]were calculated to summarize PRO-C3 data. […] Mean difference with 95% CI and nominal P-values were obtained from the ANCOVA. Scatterplots and Spearman's correlations with 95% CIs were used to assess the associations between P3NP/ELF and PRO-C3 both at baseline and change from baseline at Week 52.

[1] abbreviates: F1B patients only, 80 mg, Week 52.
Where [2] appears, read: F1B patients only, 100 mg, Week 52.
The mark [3] stands for this setting: F2 patients only, 80 mg, Week 52.
The mark [4] stands for this setting: F2 patients only, 100 mg, Week 52.
Setting [5] is: F3 patients only, 80 mg, Week 52.
The mark [6] stands for this setting: F3 patients only, 100 mg, Week 52.
[7] abbreviates: Overall, 80 mg, Week 52, ELISA GEN2.
Setting [8] is: Overall, 100 mg, Week 52, ELISA GEN2.

In the case of `CC(C)c1cc(Oc2c(Cl)cc(-n3nc(C#N)c(=O)[nH]c3=O)cc2Cl)n[nH]c1=O` [Resmetirom, 2-(3,5-dichloro-4-((5-isopropyl-6-oxo-1,6-dihydropyridazin-3-yl)oxy)phenyl)-3,5-dioxo-2,3,4,5-tetrahydro-1,2,4-triazine-6-carbonitrile], the “PRO-C3 change from baseline” value (80 mg, Week 52) is reported as −17.93 (4.61); the “PRO-C3 change from baseline” value (100 mg, Week 52) is on record as −23.05 (4.76); the “PRO-C3 change from baseline” value (F3 patients, 80 mg, Week 52) is reported as −22.42 (6.38); the “PRO-C3 change from baseline” value (F3 patients, 100 mg, Week 52) was −27.42 (6.72). Further, the “mean difference vs placebo in PRO-C3 change from baseline” value is recorded as −16.9 (80 mg, Week 52) and −22.1 (100 mg, Week 52). Further, the “Change from Baseline in PRO-C3, Mean” value runs as follows: under setting [1], -0.69 ng/mL; under setting [2], -7.20 ng/mL; under setting [3], -11.51 ng/mL; under setting [4], -15.79 ng/mL; under setting [5], -22.42 ng/mL; under setting [6], -27.42 ng/mL. Further, the “Change from Baseline in PRO-C3, Mean” value is, setting by setting: under setting [7], -17.93 ng/mL; under setting [8], -23.05 ng/mL. Besides, the “Change from Baseline in PRO-C3, Median” value is 4.30 ng/mL under setting [1]; 0.40 ng/mL under setting [2]; -13.65 ng/mL under setting [3]; -10.10 ng/mL under setting [4]; -11.90 ng/mL under setting [5]; -18.30 ng/mL under setting [6]. Besides, the “Change from Baseline in PRO-C3, Median” value under setting [7] was -11.95 ng/mL and the “Change from Baseline in PRO-C3, Median” value under setting [8] was -13.40 ng/mL.
